Test results from paper PMC5323086, “Ionization Constants of the Six Dichloroanilines and the Six Dichlorophenols in Aqueous Solution at 25 °C” (Journal of Research of the National Bureau of Standards. …, 1964).
Like-named read-outs stand apart in the source and are kept apart here.

Columns and labels:
[1] = pK calculated from monosubstituted compounds assuming additivity of substituent effects
[2] = pK values quoted from the literature; assay type: physicochemical; details: Murray and Gordon value raised by 0.22
[3] = cited from earlier work
[4] = pKA calculated from pKP of the corresponding phenol by linear relation eq (8)
[5] = aqueous solution at 25°; final value, standard deviation in parentheses; 2,6-compound: limiting value at CHCl=0
[6] = pK calculated by the Hammett relation, eq (5) and eq (6)
[7] = pK (calc.)−pK (obs.), pK (calc.) from monosubstituted compounds

Nc1cccc(Cl)c1Cl [2,3-Dichloroaniline]
ΔpK(1) Dichloroaniline [1, 7]: 0.16

Oc1c(Cl)cccc1Cl [2,6-Dichlorophenol]
ΔpK(1) Dichlorophenol [1]: .27
pKP adjusted value [2]: 7.01

Cc1ccc(C)c(O)c1 [2,5-xylenol]
pK [3]: 10.40

O=C(O)c1cc(Cl)cc(Cl)c1 [3,5-dichlorobenzoic acid]
ionization constant (pK) [3]: 3.43

O=C(O)c1ccc(Cl)c(Cl)c1 [3,4-dichlorobenzoic acid]
ionization constant (pK) [3]: 3.64

Nc1ccc(Cl)cc1[N+](=O)[O-] [4-chloro-2-nitroaniline]
discrepancy between observed and predicted pK, eq (8) [4]: 1.03

Nc1c(Cl)cccc1Cl [2,6-Dichloroaniline]
pK Dichloroaniline [5]: 0.422
pKa (physchem): 0.482
ΔpK(1) Dichloroaniline [1, 7]: .28

Nc1ccc(Cl)cc1Cl [2,4-Dichloroaniline, 2,4-Dichloroaniline]
ΔpK(1) Dichloroaniline [1, 7]: .01

Cc1cc(N)ccc1[N+](=O)[O-] [4-nitro-m-toluidine]
pK ([3]; Wepster): 1.50
discrepancy between observed and predicted pK, eq (8) [4]: 0.17

Nc1ccc(Cl)c(Cl)c1 [3,4-Dichloroaniline]
ΔpK(1) Dichloroaniline [1]: −.07

Nc1cc(Cl)ccc1Cl [2,5-Dichloroaniline]
melting point: 50 to 50.5 °C
pKA ([3]; Gillois and Rumpf): 1.57

Oc1ccc(Cl)c(Cl)c1 [3,4-Dichlorophenol]
difference of Hammett-calculated pK from the observed value [6]: 0.08
ΔpK(1) Dichlorophenol [1]: −.04

Oc1cc(Cl)cc(Cl)c1 [3,5-Dichlorophenol]
difference of Hammett-calculated pK from the observed value [6]: 0.01
ΔpK(1) Dichlorophenol [1]: .07

Oc1cccc(Cl)c1Cl [2,3-Dichlorophenol]
ΔpK(1) Dichlorophenol [1]: −0.05

Oc1cc(Cl)ccc1Cl [2,5-Dichlorophenol]
ΔpK(1) Dichlorophenol [1]: .15

Nc1cc(Cl)cc(Cl)c1 [3,5-Dichloroaniline]
difference of Hammett-calculated pK from the observed value [6]: 0.02
ΔpK(1) Dichloroaniline [1]: .06

Oc1ccc(Cl)cc1Cl [2,4-Dichlorophenol]
ΔpK(1) Dichlorophenol [1]: .06
